Patent US7732467B2, “Method for reducing amyloid deposition, amyloid neurotoxicity and microgliosis” (Alzheimer's Institute of America, Inc., priority 2003, dated 2010)

Legend:
[1] = system: N9 murine microglial cells; test: LPS-induced microglial activation in vitro, TNF-α production by ELISA; type: cell-based, mouse
Experimental: Microglial activation is determined by TNF-α production (pg/ml) measured by ELISA;
N9 murine micoglial cells are well characterized scavenger murine microglial clones derived from embryonic mouse brain. The extent of microglial activation was determined by TNF-α production (pg/ml) measured by ELISA.

[2] = system: human neuronal progenitor cells (HNPC); test: Aβ neurotoxicity, LDH release from cells treated with pre-aggregated Aβ1-40; type: cell-based; details: 100 nM nilvadipine along with 30 μM AgAβ, three days
Experimental: Neurotoxicity is assessed by measuring the amount of lactic dehydrogenase (LDH) released from cells;
HNPC cells differentiate into neurons readily upon treatment with cyclic AMP. Cyclic AMP (1 mM) (Sigma) was added to the culture medium and the HNPC cells were incubated at 37° C. for 48 hours or more under serum free conditions. […] Neurotoxicity was assessed by measuring the amount of lactic dehydrogenase (LDH; an intracellular enzyme found in all cells) released from the cells.

[3] = system: human glioblastoma cells transfected with APPsw; test: APP processing, Aβ1-40 production in culture medium by ELISA; type: cell-based
Experimental: Production of Aβ1-40 in the culture medium was measured by ELISA.

[4] = system: plasma Aβ in TgPS/APPsw mice; test: Plasma Aβ levels in TgPS/APPsw mice, human Aβ1-40 ELISA; type: in vivo, mouse; details: 1.5 mg/kg I.P. every day for three and one half weeks; 2 year old TgPS/APPsw mice
Experimental: Following this treatment, 100 μl of blood were collected from the tail vein of the animals using EDTA (4%) as an anticoagulant. Blood samples were centrifuged at 4000 g for 1 min and the plasma was collected and diluted four times before being assayed for human Aβ1-40 using a commercially available human Aβ1-40 ELISA (Biosource, CA).

Structure (SMILES): COC(=O)C1=C(C#N)NC(C)=C(C(=O)OC(C)C)C1c1cccc([N+](=O)[O-])c1 (stereo not drawn) [nilvadipine, isopropyl-3-methyl-2-cyano-1,4-dihydro-6-methyl-4-(m-nitrophenyl)-3,5-pyridine-dicarboxylate]
- TNF-α production ([1]; 50 nM nilvadipine, no LPS, N9 cells): about 40 pg/ml
- TNF-α production ([1]; 1 μg/ml LPS plus 50 nM nilvadipine, 24 hours, N9 cells (LPS alone about 820 pg/ml)): about 670 pg/ml
- TNF-α production ([1]; LPS plus 500 nM nilvadipine, 24 hours, N9 cells (LPS alone about 820 pg/ml)): about 610 pg/ml
- decrease in LDH release [2]: about 44%
- reduction of Aβ1-40 production ([3]; 50 nM, 24 hours): about 9%
- reduction of Aβ1-40 production ([3]; 50 nM, 48 hours): about 18%
- reduction of Aβ1-40 production ([3]; 250 nM, 24 hours): about 15%
- reduction of Aβ1-40 production ([3]; 250 nM, 48 hours): about 5%
- increase in plasma levels of Aβ compared to control animals [4]: 42%
